From US10085451B2, “Synergistic herbicidal composition containing penoxsulam and bentazon” (Dow AgroSciences LLC, priority 2010, dated 2018)

Assays:
[1] = tested on: Echinochloa crus-galli (ECHCG); assay: Postemergence herbicidal activity of mixtures in the field, grass weed control; format: in vivo; conditions: 6 to 45 days after application
Protocol: Field trials were conducted in rice using standard herbicide small plot research methodology. Plots varied from 3×3 meter (m) to 3×10 m (width×length) with 4 replicates per treatment. The rice crop was grown using normal cultural practices for fertilization, seeding, watering, flooding and maintenance to ensure good growth of the crop and the weeds. All treatments in the field trials were applied using a CO2 backpack sprayer calibrated to apply 187 L/ha spray volume. Commercially available products of penoxsulam and bentazon were mixed in water at appropriate formulated product rates to achieve the desired rates based on a unit area of application (hectare) to achieve the desired rates as shown. Treatments were rated at 6 to 45 d after application as compared to the untreated control plants. Visual weed control was scored on a scale of 0 to 100 percent where 0 corresponds to no injury and 100 corresponds to complete kill. Colby's equation was used to determine the herbicidal effects expected from the mixtures (Colby, S. R. Calculation of the synergistic and antagonistic response of herbicide combinations. Weeds 1967, 15, 20-22.). The following equation was used to calculate the expected activity of mixtures containing two active ingredients, A and B: Expected=A+B−(A×B/100) A=observed efficacy of active ingredient A at the same concentration as used in the mixture. […]

[2] = tested on: Sagittaria trifolia (SAGTR); assay: Postemergence herbicidal activity of mixtures in the field, broadleaf weed control; format: in vivo; conditions: 6 to 45 days after application
Protocol: Field trials were conducted in rice using standard herbicide small plot research methodology. Plots varied from 3×3 meter (m) to 3×10 m (width×length) with 4 replicates per treatment. The rice crop was grown using normal cultural practices for fertilization, seeding, watering, flooding and maintenance to ensure good growth of the crop and the weeds. All treatments in the field trials were applied using a CO2 backpack sprayer calibrated to apply 187 L/ha spray volume. Commercially available products of penoxsulam and bentazon were mixed in water at appropriate formulated product rates to achieve the desired rates based on a unit area of application (hectare) to achieve the desired rates as shown. Treatments were rated at 6 to 45 d after application as compared to the untreated control plants. Visual weed control was scored on a scale of 0 to 100 percent where 0 corresponds to no injury and 100 corresponds to complete kill. Colby's equation was used to determine the herbicidal effects expected from the mixtures (Colby, S. R. Calculation of the synergistic and antagonistic response of herbicide combinations. Weeds 1967, 15, 20-22.). The following equation was used to calculate the expected activity of mixtures containing two active ingredients, A and B: Expected=A+B−(A×B/100) A=observed efficacy of active ingredient A at the same concentration as used in the mixture. B=observed efficacy of active ingredient B at the same concentration as used in the mixture.

Cyperus iria; CYPIR = assay: Postemergence herbicidal activity of mixtures in the greenhouse, sedge weed control; format: in vivo; conditions: 21 days after application
Protocol: Seeds of the desired test plant species were planted in 80% mineral soil/20% grit planting mixture, which typically has a pH of 7.2 and an organic matter content of approximately 3 percent, in plastic pots with a surface area of 128 square centimeters (cm^2). The growing medium was steam sterilized. The plants were grown for 7-19 days (d) in a greenhouse with an approximate 14-hour (h) photoperiod which was maintained at about 29° C. during the day and 26° C. during the night. Nutrients and water were added on a regular basis and supplemental lighting was provided with overhead metal halide 1000-Watt lamps as necessary. The plants were treated with postemergence foliar applications when they reached the second to fourth true leaf stage. All treatments were applied using a randomized complete block trial design, with 4 replications per treatment. Treatments consisted of the compounds as listed in Tables 1 and 3, each compound applied alone and in combination. Formulated amounts of penoxsulam and bentazon, were placed in 60 milliliter (mL) glass vials and dissolved in a volume of 60 mL of a water solution containing Agri-dex crop oil concentrate in a 1% v/v ratio. Compound requirements are based upon a 12 mL application volume at a rate of 187 liters per hectare (L/ha). Spray solutions of the mixtures were prepared by adding the stock solutions to the appropriate amount of dilution solution to form a 12 mL spray solution with active ingredients in single and two way combinations. Formulated compounds were applied to the plant material with an overhead Mandel track sprayer equipped with […] nozzles calibrated to deliver 187 L/ha at a spray height of 18 inches (43 centimeters (cm)) above average plant canopy. The treated plants and control plants were placed in a greenhouse as described above and watered by sub-irrigation to prevent wash-off of the test compounds. […] Visual weed control was scored on a scale of 0 to 100 percent where 0 corresponds to no injury and 100 corresponds to complete kill. […]

Rice (ORYSA) = assay: Safening of injury in rice in the greenhouse; format: in vivo, Orysa sativa; conditions: 21 days after application
Protocol: Seeds of the desired test plant species were planted in 80% mineral soil/20% grit planting mixture, which typically has a pH of 7.2 and an organic matter content of approximately 3 percent, in plastic pots with a surface area of 128 square centimeters (cm^2). The growing medium was steam sterilized. The plants were grown for 7-19 days (d) in a greenhouse with an approximate 14-hour (h) photoperiod which was maintained at about 29° C. during the day and 26° C. during the night. Nutrients and water were added on a regular basis and supplemental lighting was provided with overhead metal halide 1000-Watt lamps as necessary. The plants were treated with postemergence foliar applications when they reached the second to fourth true leaf stage. All treatments were applied using a randomized complete block trial design, with 4 replications per treatment. Treatments consisted of the compounds as listed in Tables 1 and 3, each compound applied alone and in combination. Formulated amounts of penoxsulam and bentazon, were placed in 60 milliliter (mL) glass vials and dissolved in a volume of 60 mL of a water solution containing Agri-dex crop oil concentrate in a 1% v/v ratio. […] Visual weed control was scored on a scale of 0 to 100 percent where 0 corresponds to no injury and 100 corresponds to complete kill. […]

[3] = bentazon-sodium 1000 g/ha alone

Row | SMILES | % Control ECHCG Ob ([1]; penoxsulam 38 g/ha alone) | % Control SAGTR Ob ([2]; penoxsulam 15 g/ha alone) | % Control SAGTR Ob ([2]; penoxsulam 23 g/ha alone) | % Control CYPIR Ob (Cyperus iria; CYPIR; penoxsulam 3 g/ha alone) | % Control ECHCG Ob ([1]; bentazon-sodium 2000 g/ha alone) | % Control ORYSA Ob (Rice (ORYSA); bentazon-sodium 500 g/ha alone) | % Control ORYSA Ob (Rice (ORYSA); [3]) | % Control SAGTR Ob ([2]; bentazon-sodium 1100 g/ha alone) | % Control CYPIR Ob (Cyperus iria; CYPIR; bentazon-sodium 500 g/ha alone) | % Control CYPIR Ob (Cyperus iria; CYPIR; [3])
1 | COc1cnc(OC)n2nc(NS(=O)(=O)c3c(OCC(F)F)cccc3C(F)(F)F)nc12 [Penoxsulam, 2-(2,2-difluoroethoxy)-N-(5,8-dimethoxy-[1,2,4]triazolo[1,5-c]pyrimidin-2-yl)-6-(trifluoromethyl)benzenesulfonamide] | 30% | 38% | 45% | 20% |  |  |  |  |  | 
2 | CC(C)N1C(=O)c2ccccc2NS1(=O)=O [Bentazon-Sodium, 3-(1-methylethyl)-1H-2,1,3-benzothiadiazin-4(3H)-one 2,2-dioxide] |  |  |  |  | 0% | 14% | 16% | 78% | 55% | 72%
